Experimental data from patent EP0514268A1, “Substituted amino acid azetidinyl pyridone derivatives, their preparation and use as medicines” (LABORATORIOS DEL DR. ESTEVE, S.A., priority 1991, dated 1992).
Converted amounts (≈) assume the structure as drawn.

Tests used:
[1] = Solubility in water and at pH 7.4; assay type: physicochemical
From the text: Un grand nombre des composés de l'invention manifestent une augmentation de la solubilité dans l'eau ainsi que de la solubilité à pH 7,4 lorsqu'on compare avec les composés de référence. L'augmentation de solubilité au pH physiologique peut favoriser l'absorption du produit et la solubilité élevée dans l'eau permet l'administration du composé par voie parentérale.

[2] = system: Strep. faecalis ATCC 10541; experiment: Antimicrobial activity, agar dilution; assay type: cell-based, Streptococcus faecalis; conditions: Enterococcus faecalis, ATCC10541, 20 h, Agar Dextrose dilutions, 37°C, 20 heures, read-out: Activité pharmacologique antimicrobienne (concentrations)
From the text: (§1) L'activité pharmacologique antimicrobienne de ces composés a été étudiée selon les références exposées ci-dessous.
(§2) Activité pharmacologique antimicrobienne : G.L. Daquet et Y.A. Chabbect, techniques en bactériologie, Vol. 3, Flammarion Médecine-Sciences, Paris 1972, et W.B. Hugo et A.D. Rusell, Pharmaceutical Microbiology, Blackwell Scientific Publications, London, 1977.
(§3) Milieu de culture et solvant : Agar d'antibiotiques n° 1 (Oxoid CM 327) Bouillon de triptone-soja (Oxoid CM 129) Solution Physiologique Ringer 1/4 (Oxoid BR 52) Agar Dextrose (BBL 11165)
(§4) Microorganismes : "Bacillus subtilis" ATCC 6633 "Citrobacter freundii" ATCC 112606 "Enterobacter aerogenes" ATCC 15038 "Enterobacter cloacae" ATCC 23355 "Bacillus cereus" ATCC 1178 "Escherichia coli" ATCC 10799 "Escherichia coli" ATCC 23559 "Klebsiella pneumoniae" ATCC 10031 "Proteus vulgaris" ATCC 8427 "Morg. morganii" ATCC 8019 "Pseudomonas aeruginosa" ATCC 9721 "Pseudomonas aeruginosa" ATCC 10145 "Salmonella typhimurium" ATCC 14028 "Salmonella typhimurium" ATCC 6539 "Serratia marcescens" ATCC 13880 "Shigella flexnerii" ATCC 12022 "Staphylococcusepidermis" ATCC 155-1 "Staphylococcus aureus" ATCC 25178 "Streptococcus faecalis" ATCC 10541.
(§5) Chacun des microorganismes est ensemencé par strie dans des tubes d'Agar d'antibiotiques n° 1, et mis en incubation pendant 20 heures à 37°C. Ensuite, on prend une anse de culture, on ensemence dans un bouillon de Triptone-soja et on incube pendant 20 heures à 37°C. On dilue à 1/4 la culture obtenue avec une solution physiologique Ringer, de façon à obtenir une suspension normalisée de […] pour chaque organisme.
(§6) A partir d'une solution de 100 µg/ml, chaque produit est dilué dans l'Agar Dextrose (préalablement fondu et maintenu à 50°C) par dilutions successives de façon à obtenir les concentrations suivantes : 64-32-16-8-4-2-1-0,5-0,25-0,125 µg de dérivé/ml du milieu.
(§7) Postérieurement, chaque concentration de chaque produit est répartie dans des boîtes de Petri de 10 cm de diamètre, à raison de 10 ml de milieu par boîte et autant de boîtes que de microorganismes à tester.
(§8) Une fois le milieu refroidi, les boîtes sont ensemencées avec les inoculations à raison de 0,4 ml d'inoculation par boîte. On les étend avec une anse de Driglasky et on recueille le surnageant. Les boîtes ensemencées sont incubées à 37°C pendant 20 heures.
(§9) Les résultats obtenus sont décrits dans les tableaux suivants. Les concentrations sont données en µg/ml.

Staph. aureus ATCC 25178 = experiment: Antimicrobial activity, agar dilution; assay type: cell-based, Staphylococcus aureus; conditions: Staphylococcus aureus, ATCC25178, 20 h, Agar Dextrose dilutions, 37°C, 20 heures, read-out: Activité pharmacologique antimicrobienne (concentrations)
From the text: as §1, §2, §3, §4, §5, §6, §7, §8, §9

[3] = system: Citr. freundii ATCC 11606; experiment: Antimicrobial activity, agar dilution; assay type: cell-based, Citrobacter freundii; conditions: Citrobacter freundii, ATCC11606, 20 h, Agar Dextrose dilutions, 37°C, 20 heures, read-out: Activité pharmacologique antimicrobienne (concentrations)
From the text: as §1, §2, §3, §4, §5, §6, §7, §8, §9

[4] = system: Bacillus cereus ATCC 11778; experiment: Antimicrobial activity, agar dilution; assay type: cell-based; conditions: Bacillus cereus, ATCC11778, 20 h, Agar Dextrose dilutions, 37°C, 20 heures, read-out: Activité pharmacologique antimicrobienne (concentrations)
From the text: as §1, §2, §3, §4, §5, §6, §7, §8, §9

[5] = system: Bacillus subtilis ATCC 6633; experiment: Antimicrobial activity, agar dilution; assay type: cell-based; conditions: ATCC6633, 20 h, Agar Dextrose dilutions, 37°C, 20 heures, read-out: Activité pharmacologique antimicrobienne (concentrations)
From the text: as §1, §2, §3, §4, §5, §6, §7, §8, §9

[6] = system: Escherichia coli ATCC 10799; experiment: Antimicrobial activity, agar dilution; assay type: cell-based; conditions: Escherichia coli, ATCC10799, 20 h, Agar Dextrose dilutions, 37°C, 20 heures, read-out: Activité pharmacologique antimicrobienne (concentrations)
From the text: as §1, §2, §3, §4, §5, §6, §7, §8, §9

[7] = system: Escherichia coli ATCC 23559; experiment: Antimicrobial activity, agar dilution; assay type: cell-based; conditions: Escherichia coli, ATCC23559, 20 h, Agar Dextrose dilutions, 37°C, 20 heures, read-out: Activité pharmacologique antimicrobienne (concentrations)
From the text: as §1, §2, §3, §4, §5, §6, §7, §8, §9

Morg. morganii ATCC 8019 = experiment: Antimicrobial activity, agar dilution; assay type: cell-based; conditions: Morganella morganii, ATCC8019, 20 h, Agar Dextrose dilutions, 37°C, 20 heures, read-out: Activité pharmacologique antimicrobienne (concentrations)
From the text: as §1, §2, §3, §4, §5, §6, §7, §8, §9

[8] = system: Proteus vulgaris ATCC 8427; experiment: Antimicrobial activity, agar dilution; assay type: cell-based; conditions: Proteus vulgaris, ATCC8427, 20 h, Agar Dextrose dilutions, 37°C, 20 heures, read-out: Activité pharmacologique antimicrobienne (concentrations)
From the text: as §1, §2, §3, §4, §5, §6, §7, §8, §9

[9] = system: Ps. aeruginosa ATCC 10145; experiment: Antimicrobial activity, agar dilution; assay type: cell-based; conditions: Pseudomonas aeruginosa, ATCC10145, 20 h, Agar Dextrose dilutions, 37°C, 20 heures, read-out: Activité pharmacologique antimicrobienne (concentrations)
From the text: as §1, §2, §3, §4, §5, §6, §7, §8, §9

Ps. aeruginosa ATCC 9721 = experiment: Antimicrobial activity, agar dilution; assay type: cell-based; conditions: Pseudomonas aeruginosa, ATCC9721, 20 h, Agar Dextrose dilutions, 37°C, 20 heures, read-out: Activité pharmacologique antimicrobienne (concentrations)
From the text: as §1, §2, §3, §4, §5, §6, §7, §8, §9

Sal. typhi ATCC 6539 = experiment: Antimicrobial activity, agar dilution; assay type: cell-based; conditions: Salmonella enterica, 20 h, read-out: Activité pharmacologique antimicrobienne (concentrations)
From the text: as §1, §2, §3, §4, §5, §6, §7, §8, §9

[10] = system: Shigella flexnerii ATCC 12022; experiment: Antimicrobial activity, agar dilution; assay type: cell-based; conditions: ATCC12022, 20 h, Agar Dextrose dilutions, 37°C, 20 heures, read-out: Activité pharmacologique antimicrobienne (concentrations)
From the text: as §1, §2, §3, §4, §5, §6, §7, §8, §9

[11] = system: Staph. epidermidis ATCC 155-1; experiment: Antimicrobial activity, agar dilution; assay type: cell-based; conditions: Staphylococcus epidermidis, ATCC155, 20 h, Agar Dextrose dilutions, 37°C, 20 heures, read-out: Activité pharmacologique antimicrobienne (concentrations)
From the text: as §1, §2, §3, §4, §5, §6, §7, §8, §9

[12] = system: Kleb. pneumoniae ATCC 10031; experiment: Antimicrobial activity, agar dilution; assay type: cell-based, Klebsiella pneumoniae; conditions: Klebsiella pneumoniae, ATCC10031, 20 h, Agar Dextrose dilutions, 37°C, 20 heures, read-out: Activité pharmacologique antimicrobienne (concentrations)
From the text: as §1, §2, §3, §4, §5, §6, §7, §8, §9

[13] = system: Sal. typhimurium ATCC 14028; experiment: Antimicrobial activity, agar dilution; assay type: cell-based, Salmonella typhimurium; conditions: Salmonella enterica, 20 h, Agar Dextrose dilutions, 37°C, 20 heures, read-out: Activité pharmacologique antimicrobienne (concentrations)
From the text: as §1, §2, §3, §4, §5, §6, §7, §8, §9

[14] = system: Ent. aerogenes ATCC 15038; experiment: Antimicrobial activity, agar dilution; assay type: cell-based, Enterobacter aerogenes; conditions: Klebsiella aerogenes, ATCC15038, 20 h, Agar Dextrose dilutions, 37°C, 20 heures, read-out: Activité pharmacologique antimicrobienne (concentrations)
From the text: as §1, §2, §3, §4, §5, §6, §7, §8, §9

Ent. cloacae ATCC 23355 = experiment: Antimicrobial activity, agar dilution; assay type: cell-based, Enterobacter cloacae; conditions: Enterobacter cloacae, ATCC23355, 20 h, Agar Dextrose dilutions, 37°C, 20 heures, read-out: Activité pharmacologique antimicrobienne (concentrations)
From the text: as §1, §2, §3, §4, §5, §6, §7, §8, §9

[15] = system: Serr. marcescens ATCC 13880; experiment: Antimicrobial activity, agar dilution; assay type: cell-based, Serratia marcescens; conditions: Serratia marcescens, ATCC13880, 20 h, Agar Dextrose dilutions, 37°C, 20 heures, read-out: Activité pharmacologique antimicrobienne (concentrations)
From the text: as §1, §2, §3, §4, §5, §6, §7, §8, §9

Row | SMILES | solubility ([1]; pH 7) [µg/mL] | MIC [2] [µg/mL] | MIC (Staph. aureus ATCC 25178) [µg/mL] | MIC [3] [µg/mL] | MIC [4] [µg/mL] | MIC [5] [µg/mL] | MIC [6] [µg/mL] | MIC [7] [µg/mL] | MIC (Morg. morganii ATCC 8019) [µg/mL] | MIC [8] [µg/mL] | MIC [9] [µg/mL] | MIC (Ps. aeruginosa ATCC 9721) [µg/mL] | MIC (Sal. typhi ATCC 6539) [µg/mL] | MIC [10] [µg/mL] | MIC [11] [µg/mL] | MIC [12] [µg/mL] | MIC [13] [µg/mL] | MIC [14] [µg/mL] | MIC (Ent. cloacae ATCC 23355) [µg/mL] | MIC [15] [µg/mL] | also measured
1 | C[C@H]1[C@H](N)CN1c1nc2c(cc1F)c(=O)c(C(=O)O)cn2C1CC1 [Exemple 1a, acide 7-[(2S,3R)-2-méthyl-3-amino-1-azétidinyl]-1-cyclopropyl-6-fluoro-1,4-dihydro-4-oxo-1,8-naphtyridine-3-carboxylique, reference compound] | 16.5 (≈ 49.6 µM) | – | – | – | – | – | – | – | – | – | – | – | – | – | – | – | – | – | – | – | solubility ([1]; water): 23 µg/mL (≈ 69.2 µM)
2 | C[C@@H]1[C@@H](NC(=O)[C@@H](C)N)CN1c1nc2c(cc1F)c(=O)c(C(=O)O)cn2C1CC1 [Exemple 4fa] | > 500 | 1 (≈ 2.48 µM) | 1 (≈ 2.48 µM) | 4 (≈ 9.92 µM) | 1 (≈ 2.48 µM) | 0.5 (≈ 1.24 µM) | 4 (≈ 9.92 µM) | 1 (≈ 2.48 µM) | 8 (≈ 19.8 µM) | 8 (≈ 19.8 µM) | > 16 | > 16 | 4 (≈ 9.92 µM) | 1 (≈ 2.48 µM) | 0.25 (≈ 0.62 µM) | 8 (≈ 19.8 µM) | 4 (≈ 9.92 µM) | 4 (≈ 9.92 µM) | 4 (≈ 9.92 µM) | 16 (≈ 39.7 µM) | solubility ([1]; water): > 500 µg/mL
3 | C[C@@H](N)C(=O)NC1(C)CN(c2c(F)cc3c(=O)c(C(=O)O)cn(C4CC4)c3c2F)C1 [Exemple 4ca, chlorhydratede l'acide 7-(3-méthyl-3-D-Ala-amino-1-azétidinyl)-1-cyclopropyl-6,8-difluoro-1,4-dihydro-4-oxo-3-quinoléinecarboxylique] | – | 8 | 0.5 | 1 | 1 | 0.25 | 1 | 0.5 | 1 | 2 | 16 | 4 | 0.5 | 0.25 | 0.5 | 0.25 | 1 | 1 | 0.5 | 2 | –
4 | CCn1cc(C(=O)O)c(=O)c2cnc(N3CCNCC3)nc21 [Acide pipémidique, reference compound] | – | > 64 | 64 (≈ 211 µM) | 4 (≈ 13.2 µM) | 16 (≈ 52.7 µM) | 8 (≈ 26.4 µM) | 16 (≈ 52.7 µM) | 2 (≈ 6.59 µM) | 8 (≈ 26.4 µM) | 16 (≈ 52.7 µM) | 32 (≈ 105 µM) | 32 (≈ 105 µM) | 4 (≈ 13.2 µM) | 4 (≈ 13.2 µM) | 64 (≈ 211 µM) | 2 (≈ 6.59 µM) | 8 (≈ 26.4 µM) | 32 (≈ 105 µM) | 8 (≈ 26.4 µM) | 16 (≈ 52.7 µM) | –
5 | CCC[C@H](N)C(=O)NC1CN(c2nc3c(cc2F)c(=O)c(C(=O)O)cn3-c2ccc(F)cc2F)C1 [Exemple 4bN] | – | 4 (≈ 8.17 µM) | 4 (≈ 8.17 µM) | 1 (≈ 2.04 µM) | 0.5 (≈ 1.02 µM) | 0.25 (≈ 0.511 µM) | 2 (≈ 4.09 µM) | 0.25 (≈ 0.511 µM) | 2 (≈ 4.09 µM) | 4 (≈ 8.17 µM) | 16 (≈ 32.7 µM) | 4 (≈ 8.17 µM) | 1 (≈ 2.04 µM) | 0.12 (≈ 0.245 µM) | 2 (≈ 4.09 µM) | 0.12 (≈ 0.245 µM) | 1 (≈ 2.04 µM) | 1 (≈ 2.04 µM) | 0.5 (≈ 1.02 µM) | 2 (≈ 4.09 µM) | –
6 | NC1CN(c2nc3c(cc2F)c(=O)c(C(=O)O)cn3-c2ccc(F)cc2F)C1 [Exemple 1b, acide 7-(3-amino-1-azétidinyl)-1-(2,4-difluorophényl)-6-fluoro-1,4-dihydro-4-oxo-1,8-naphtyridine-3-carboxylique, reference compound] | 3.7 (≈ 9.48 µM) | – | – | – | – | – | – | – | – | – | – | – | – | – | – | – | – | – | – | – | solubility ([1]; water): 3 µg/mL (≈ 7.69 µM)
